Consider 27 compounds from US11685746B2, “Heteroaryl compounds for treating Huntington's disease” (PTC THERAPEUTICS, INC., priority 2018, dated 2023).

The test system of the experiment is Endogenous Huntingtin Protein. Description: Endogenous Huntingtin Protein Assay (MSD plates, MW1 or MAB2166 capture antibody). The class given is cell-based. The note with it: Table 1. On the procedure:
Endogenous Huntingtin Protein Assay
Meso Scale Discovery (MSD) 96-well or 384-well plates were coated overnight at 4° C. with MW1 (expanded polyglutamine) or MAB2166 monoclonal antibody (for capture) at a concentration of 1 μg/mL in PBS (30 μL per well). Plates were then washed three times with 300 μL wash buffer (0.05% Tween-20 in PBS) and blocked (100 μL blocking buffer; 5% BSA in PBS) for 4-5 hours at room temperature with rotational shaking and then washed three times with wash buffer.
Samples (25 μL) were transferred to the antibody-coated MSD plate and incubated overnight at 4° C. After removal of the lysates, the plate was washed three times with wash buffer, and 25 μL of #5656S (Cell signaling; rabbit monoclonal) secondary antibody (diluted to 0.25 μg/mL in 0.05% Tween-20 in blocking buffer) was added to each well and incubated with shaking for 1 Hour at room temperature. Following incubation with the secondary antibody, the wells were rinsed with wash buffer after which 25 μL of goat anti-rabbit SULFO TAG secondary detection antibody (required aspect of the MSD system) (diluted to 0.25 μg/mL in 0.05% Tween-20 in blocking buffer) was added to each well and incubated with shaking for 1 hour at room temperature. After rinsing three times with wash buffer, 150 μL of read buffer T with surfactant (MSD) were added to each empty well, and the plate was imaged on a SI 6000 imager (MSD) according to manufacturers' instructions provided for 96- or 384-well plates.
Consider `CN(c1nc2sc(-c3ncc(-c4ccnnc4)cc3O)nc2s1)C1CCNCC1` [Compound 225, 2-{5-[methyl(piperidin-4-yl)amino][1,3]thiazolo[5,4-d][1,3]thiazol-2-yl}-5-(pyridazin-4-yl)pyridin-3-ol], for which the 50% inhibitory concentration (IC50) (usually the concentration at which inhibition is half-maximal) is no more than 100 nM.
The compound `CN1CCC2(CC1)CCN2c1nc2sc(-c3ncc(-c4cn[nH]c4)cc3O)nc2s1` [Compound 179, 2-[5-(7-methyl-1,7-diazaspiro[3.5]nonan-1-yl)[1,3]thiazolo[5,4-d][1,3]thiazol-2-yl]-5-(1H-pyrazol-4-yl)pyridin-3-ol] returned an IC50 of no more than 100 nM.
`Oc1cc(-c2cn[nH]c2)cnc1-c1nc2sc(N3CC4(CCNCC4)C3)nc2s1` [Compound 209, 2-[5-(2,7-diazaspiro[3.5]nonan-2-yl)[1,3]thiazolo[5,4-d][1,3]thiazol-2-yl]-5-(1H-pyrazol-4-yl)pyridin-3-ol] registered a concentration for half-maximal inhibition (IC50) of no more than 100 nM.
As to `CN(c1nc2sc(-c3ccc(-c4cn[nH]c4)c(F)c3F)nc2s1)C1CC(C)(C)NC(C)(C)C1` [Compound 3, 5-[2,3-difluoro-4-(1H-pyrazol-4-yl)phenyl]-N-methyl-N-(2,2,6,6-tetramethylpiperidin-4-yl)[1,3]thiazolo[5,4-d][1,3]thiazol-2-amine], the half-maximal inhibitory concentration (IC50) lay in the range of 100 to 500 nM.
Compound `Oc1cc(-c2cn[nH]c2)ccc1-c1nc2sc(NC3CC4CCC(C3)N4)nc2s1` (stereo not drawn) [Compound 13, 2-{5-[(3-exo)-8-azabicyclo[3.2.1]oct-3-ylamino][1,3]thiazolo[5,4-d][1,3]thiazol-2-yl}-5-(1H-pyrazol-4-yl)phenol] came in with an IC50 of no more than 100 nM.
As for `CN(c1nc2sc(-c3cnc(-c4ccn(C)c(=O)c4)cn3)nc2s1)[C@H]1C[C@]2(C)CC[C@](C)(C1)N2` [Compound 92, 4-[5-(5-{[(1R,3s,5S)-1,5-dimethyl-8-azabicyclo[3.2.1]octan-3-yl](methyl)amino}[1,3]thiazolo[5,4-d][1,3]thiazol-2-yl)pyrazin-2-yl]-1-methylpyridin-2(1H)-one], the figure is no more than 100 nM; as for `CN(c1nc2sc(-c3ccc(-c4cn[nH]c4)c4cn[nH]c34)nc2s1)[C@H]1C[C@]2(C)CC[C@](C)(C1)N2` [Compound 110, N-[(1R,3s,5S)-1,5-dimethyl-8-azabicyclo[3.2.1]octan-3-yl]-N-methyl-5-[4-(1H-pyrazol-4-yl)-1H-indazol-7-yl][1,3]thiazolo[5,4-d][1,3]thiazol-2-amine], no more than 100 nM.
On to `CN(c1nc2sc(-c3ncc(-c4cn[nH]c4)cc3O)nc2s1)[C@H]1CCNC1` [Compound 213, 2-(5-{methyl[(3S)-pyrrolidin-3-yl]amino}[1,3]thiazolo[5,4-d][1,3]thiazol-2-yl)-5-(1H-pyrazol-4-yl)pyridin-3-ol], for which the 50% inhibitory concentration (IC50) is no more than 100 nM.
As to `Cc1ncc(-c2cnc(-c3nc4sc(N(C)[C@@H]5C[C@H]6CC[C@@H](C5)N6)nc4s3)c(O)c2)s1` [Compound 199, 2-(5-{[(1R,3s,5S)-8-azabicyclo[3.2.1]octan-3-yl](methyl)amino}[1,3]thiazolo[5,4-d][1,3]thiazol-2-yl)-5-(2-methyl-1,3-thiazol-5-yl)pyridin-3-ol], the half-maximal inhibitory concentration (IC50) is no more than 100 nM.
`CN(c1nc2sc(-c3ncc(-c4cn[nH]c4)cc3O)nc2s1)C1CCN2CCCC2C1` (stereo not drawn) [Compound 145, 2-{5-[methyl(octahydroindolizin-7-yl)amino][1,3]thiazolo[5,4-d][1,3]thiazol-2-yl}-5-(1H-pyrazol-4-yl)pyridin-3-ol] displayed an IC50 of no more than 100 nM.
`CN(c1nc2sc(-c3cnc(-n4cncn4)cn3)nc2s1)[C@H]1C[C@]2(C)CC[C@](C)(C1)N2` [Compound 70, N-[(1R,3s,5S)-1,5-dimethyl-8-azabicyclo[3.2.1]octan-3-yl]-N-methyl-5-[5-(1H-1,2,4-triazol-1-yl)pyrazin-2-yl][1,3]thiazolo[5,4-d][1,3]thiazol-2-amine]: the half-maximal inhibitory concentration (IC50) was no more than 100 nM.
Turning to `CN1CCC(N(C)c2nn3cc(-c4cc(C#N)c5nn(C)cc5c4)nc3s2)CC1` [Compound 31, 2-methyl-5-{2-[methyl(1-methylpiperidin-4-yl)amino]imidazo[2,1-b][1,3,4]thiadiazol-6-yl}-2H-indazole-7-carbonitrile], the concentration for half-maximal inhibition (IC50) fell in the range of 3000 to 9000 nM.
Compound `C[C@H]1C[C@@H](N(C)c2nc3sc(-c4cnc(-c5cn[nH]c5)cn4)nc3s2)CCN1` [Compound 99, N-methyl-N-[(2S,4S)-2-methylpiperidin-4-yl]-5-[5-(1H-pyrazol-4-yl)pyrazin-2-yl][1,3]thiazolo[5,4-d][1,3]thiazol-2-amine] had a half-inhibitory concentration (IC50) of 500 to 1000 nM.
In turn, `CN(c1nc2sc(-c3ncc(-n4nccn4)cc3O)nc2s1)C1CCNCC1` [Compound 214, 2-{5-[methyl(piperidin-4-yl)amino][1,3]thiazolo[5,4-d][1,3]thiazol-2-yl}-5-(2H-1,2,3-triazol-2-yl)pyridin-3-ol] gave an IC50 of 500 to 1000 nM.
Regarding `Cn1ncc(-c2ccc(-c3nc4sc(OC5CC(C)(C)NC(C)(C)C5)nc4s3)c(O)c2)c1F` [Compound 45, 5-(5-fluoro-1-methyl-1H-pyrazol-4-yl)-2-{5-[(2,2,6,6-tetramethylpiperidin-4-yl)oxy][1,3]thiazolo[5,4-d][1,3]thiazol-2-yl}phenol], the 50% inhibitory concentration (IC50) is no more than 100 nM.
As for `CN(c1nc2sc(-c3cnc(-n4cccn4)cn3)nc2s1)C1CC(C)(C)NC(C)(C)C1` [Compound 105, N-methyl-5-[5-(1H-pyrazol-1-yl)pyrazin-2-yl]-N-(2,2,6,6-tetramethylpiperidin-4-yl)[1,3]thiazolo[5,4-d][1,3]thiazol-2-amine], the figure is 500 to 1000 nM; as for `CN(c1nc2sc(-c3cnc(-c4cnn(C)c4)cn3)nc2s1)[C@H]1C[C@]2(C)CC[C@](C)(C1)N2` [Compound 89, N-[(1R,3s,5S)-1,5-dimethyl-8-azabicyclo[3.2.1]octan-3-yl]-N-methyl-5-[5-(1-methyl-1H-pyrazol-4-yl)pyrazin-2-yl][1,3]thiazolo[5,4-d][1,3]thiazol-2-amine], no more than 100 nM; as for `CN(c1nc2sc(-c3ncc(-c4cn[nH]c4Cl)cc3O)nc2s1)C1CCNCC1` [Compound 220, 5-(5-chloro-1H-pyrazol-4-yl)-2-{5-[methyl(piperidin-4-yl)amino][1,3]thiazolo[5,4-d][1,3]thiazol-2-yl}pyridin-3-ol], no more than 100 nM.
To `Fc1cc(-c2nc3sc(N4CC5(CCNCC5)C4)nc3s2)c(F)cc1-c1cn[nH]c1` [Compound 177, 2-{5-[2,5-difluoro-4-(1H-pyrazol-4-yl)phenyl][1,3]thiazolo[5,4-d][1,3]thiazol-2-yl}-2,7-diazaspiro[3.5]nonane] belongs 1000 to 3000 nM; to `CN(c1nc2sc(-c3ccc(-c4cnn(C)c4F)cc3O)nc2s1)C1CC(C)(C)NC(C)(C)C1` [Compound 48, 5-(5-fluoro-1-methyl-1H-pyrazol-4-yl)-2-{5-[methyl(2,2,6,6-tetramethylpiperidin-4-yl)amino][1,3]thiazolo[5,4-d][1,3]thiazol-2-yl}phenol], 100 to 500 nM; to `Cc1cn2cc(-c3nn4cc(C5CCNCC5)nc4s3)cc(C#N)c2n1` [Compound 29, 2-methyl-6-[6-(piperidin-4-yl)imidazo[2,1-b][1,3,4]thiadiazol-2-yl]imidazo[1,2-a]pyridine-8-carbonitrile], 100 to 500 nM.
Compound `CN(c1nc2sc(-c3ncc(-c4ccc5nncn5c4)cc3O)nc2s1)C1CCNCC1` [Compound 210, 2-{5-[methyl(piperidin-4-yl)amino][1,3]thiazolo[5,4-d][1,3]thiazol-2-yl}-5-([1,2,4]triazolo[4,3-a]pyridin-6-yl)pyridin-3-ol] had an IC50 of 3000 to 9000 nM.
`CN(c1nc2sc(-c3cc(F)c(-c4cn[nH]c4)c(F)c3)nc2s1)C1CC(C)(C)NC(C)(C)C1` [Compound 5, 5-[3,5-difluoro-4-(1H-pyrazol-4-yl)phenyl]-N-methyl-N-(2,2,6,6-tetramethylpiperidin-4-yl)[1,3]thiazolo[5,4-d][1,3]thiazol-2-amine] registered a half-inhibitory concentration (IC50) of no more than 100 nM.
The compound `Cn1cc2cc(-c3nn4cc(C5CCNCC5)nc4s3)cc(C#N)c2n1` [Compound 27, 2-methyl-5-[6-(piperidin-4-yl)imidazo[2,1-b][1,3,4]thiadiazol-2-yl]-2H-indazole-7-carbonitrile] gave an IC50 of no more than 100 nM.
`CN(c1nc2sc(-c3ncc(-c4cn[nH]c4)c4cc[nH]c34)nc2s1)[C@@H]1C[C@H]2CC[C@@H](C1)N2` [Compound 184, N-[(1R,3s,5S)-8-azabicyclo[3.2.1]octan-3-yl]-N-methyl-5-[4-(1H-pyrazol-4-yl)-1H-pyrrolo[2,3-c]pyridin-7-yl][1,3]thiazolo[5,4-d][1,3]thiazol-2-amine]: the concentration for half-maximal inhibition (IC50) was no more than 100 nM.
As for `CC(C)N1CCC(N(C)c2nc3sc(-c4ncc(-c5cn[nH]c5)cc4O)nc3s2)CC1` [Compound 205, 2-(5-{methyl[1-(propan-2-yl)piperidin-4-yl]amino}[1,3]thiazolo[5,4-d][1,3]thiazol-2-yl)-5-(1H-pyrazol-4-yl)pyridin-3-ol], the figure is no more than 100 nM; as for `Cc1cc(-c2cnc(-c3nc4sc(N(C)C5CCNCC5)nc4s3)c(O)c2)cnn1` [Compound 224, 2-{5-[methyl(piperidin-4-yl)amino][1,3]thiazolo[5,4-d][1,3]thiazol-2-yl}-5-(6-methylpyridazin-4-yl)pyridin-3-ol], no more than 100 nM.
